According to patent US20170051002A1, “Rebaudioside A Crystal And Its Preparation Method And Use” (Zhucheng Haotian Pharm Co., Ltd., priority 2014, published 2017):

What was measured:
[1] = storage stability at 25° C. RH 60% for 3 months (crystal form, HPLC purity); assay type: physicochemical; settings: after standing for 3 months
Method: The maximum solubility of the sample obtained according to the above-mentioned examples is about 30 mg/mL, and the form remains unchanged when stored at 25° C. RH 60% for 3 months from the results of HPLC analysis (purity is detected by high performance liquid chromatography, and the liquid chromatographic column and liquid chromatography used are the same as those specified by JECFA in 2010).
Perparation of sample solution: Precisely 50-100 milligrams of rebaudioside A were weighed and placed in a 50 milliliter volumetric flask, and then a solution of water and acetonitrile in a ratio of 7:3 were added for dissolution to a scale of 50 milliliter. Detection step: 5 μl of a sample solution are injected under the following conditions. Chromatographic Column: A Capcell pak C18 MG II chromatographic column from the Shiseido company or a Luna 5μ C18(2) 100A chromatographic column from the Phenomenex company or a chromatographic column of equivalent specifications (length: 250 millimeters; inner diameter: 4.6 millimeters; packing particle size: 5 μm). Mobile Phase: a mixture of acetonitrile and a sodium phosphate buffer (specification: 10 mmol/L, pH value of 2.6) in a ratio of 32:68. […] Chromatographic Column temperature: detection patterns are recorded for about 30 minutes at 40° C. […]

[2] = large number of scientific experiments; cited from earlier work
[3] = dynamic vapor adsorption (DVS) hygroscopicity; assay type: physicochemical; settings: conventional storage environment 40%-80% RH; 25° C.
Method: “Dynamic vapor adsorption (DVS)” is an instrument for measuring the hygroscopicity of a sample. Its measurement method is known in the field. For example, an instrument from Surface Measurement Systems, Ltd. may be used to collect data of humidity ranging from 5% to 95% at 25 degrees Celsius. The weight deviation under each humidity is no more than ±0.02% within 10 min. The rebaudioside A Form 7 of the present invention has particular stability, which is conducive to storage. […] In a preferred embodiment, the DVS isotherm of the resulting rebaudioside A crystal form 7 is substantially identical to FIG. 4. DVS: All dynamic vapour adsorption (DVS) experimental data of the present invention are measured by a DVS Intrinsic dynamic vapour sorption instrument from SMS, UK. Measurement conditions: Temperature: 25° C.; Relative humidity range: 5%-95%.

In the case of `C=C1C[C@@]23CC[C@H]4[C@@](C)(CCC[C@@]4(C)C(=O)O[C@@H]4O[C@H](CO)[C@@H](O)[C@H](O)[C@H]4O)[C@@H]2CC[C@]1(O[C@@H]1O[C@H](CO)[C@@H](O)[C@H](O[C@@H]2O[C@H](CO)[C@@H](O)[C@H](O)[C@H]2O)[C@H]1O[C@@H]1O[C@H](CO)[C@@H](O)[C@H](O)[C@H]1O)C3` [Rebaudioside A], the “purity change by HPLC compared to the starting material” value [1] is listed as “less than 0.5%” and the “toxicity and side effect” value [2] is listed as “without any toxicity and side effect”.

With `C=C1C[C@@]23CC[C@H]4[C@@](C)(CCC[C@@]4(C)C(=O)O[C@@H]4O[C@H](CO)[C@@H](O)[C@H](O)[C@H]4O)[C@@H]2CC[C@]1(O[C@@H]1O[C@H](CO)[C@@H](O)[C@H](O[C@@H]2O[C@H](CO)[C@@H](O)[C@H](O)[C@H]2O)[C@H]1O[C@@H]1O[C@H](CO)[C@@H](O)[C@H](O)[C@H]1O)C3` [rebaudioside A Form 7, rebaudioside A] the “hygroscopicity in DVS patterns” value [3] was “little hygroscopicity”.
